Legend:
Type in all cases: biochemical
[1] = target: CDK1/Cyclin B1 (Homo sapiens (Human), UniProt P06493); assay: CDK1/Cyclin B1 ADP-Glo Kinase Assay
Protocol: CDK1/Cyclin B1 ADP-Glo Kinase Assay
(§1) The purpose of CDK1/Cyclin Bi assay is to evaluate the inhibition (% inhibition and IC50 values) of small molecule inhibitors by using a Luminescent based ADP-Glo assay. CDK1/Cyclin B1 catalyzes the production of ADP from ATP. ADP-Glo assay monitors ADP producing biochemical reactions. ADP-Glo is performed in 2 steps upon completion of kinase reaction: a combined termination of kinase reaction and depletion of remaining ATP in the first step, and conversion of generated ADP to ATP and the newly produced ATP to light output using luciferase/luciferin reaction in the second step. The luminescent signal generated is proportional to the ADP concentration produced and is correlated with the kinase activity. CDK1/Cyclin B1 was purchased from Carna (Cat 04-102). […] The assay was initiated with the addition of ATP-containing substrate solution, following a 30-minute pre-incubation of enzyme and inhibitor at room temperature in the reaction mixture. The reaction was stopped after 90 minutes at room temperature by the addition of 10 μL of ADP-GLO Reagent. After a 90 minute incubation, 20 μL of Kinase Detection Reagent was added. Samples were incubated for 40 minutes, after which plate well luminescence was measured on a Envision microplate reader. The IC50 determinations were made from a plot of the fractional velocity as a function of inhibitor concentration fit to the 4 parameters IC50 equation.

[2] = target: CDK6/Cyclin D3 (Homo sapiens (Human), UniProt Q00534); assay: CDK6/Cyclin D3 ADP-Glo Kinase Assay; settings: read-out: CDK6/CyclinD3 IC50
CDK6/Cyclin D3, sequence (Q00534 whole entry): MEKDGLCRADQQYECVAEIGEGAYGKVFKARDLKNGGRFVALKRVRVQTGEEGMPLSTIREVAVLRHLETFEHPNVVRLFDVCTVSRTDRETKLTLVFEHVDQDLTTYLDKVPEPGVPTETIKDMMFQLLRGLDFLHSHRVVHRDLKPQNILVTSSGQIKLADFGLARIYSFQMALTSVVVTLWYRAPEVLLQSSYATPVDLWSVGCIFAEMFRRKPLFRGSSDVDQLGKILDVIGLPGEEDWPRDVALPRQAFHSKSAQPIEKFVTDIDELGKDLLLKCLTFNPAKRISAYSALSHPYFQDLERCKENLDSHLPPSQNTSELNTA
CDK6/Cyclin D3, sequence (P30281 whole entry partner): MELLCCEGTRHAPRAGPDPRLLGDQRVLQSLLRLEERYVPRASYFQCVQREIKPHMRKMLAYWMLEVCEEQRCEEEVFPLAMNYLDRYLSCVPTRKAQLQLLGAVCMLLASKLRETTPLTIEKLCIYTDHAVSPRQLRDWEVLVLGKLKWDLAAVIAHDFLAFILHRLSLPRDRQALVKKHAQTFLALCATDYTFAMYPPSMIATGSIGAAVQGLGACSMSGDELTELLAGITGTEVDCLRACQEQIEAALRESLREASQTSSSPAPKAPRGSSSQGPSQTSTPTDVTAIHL
Protocol: CDK6/Cyclin D3 ADP-Glo Kinase Assay
as §1, with “of the CDK6/Cyclin D3” for “of CDK1/Cyclin Bi”, “values) in the presence” for “values)”, “assay. CDK6/Cyclin D3” for “assay. CDK1/Cyclin B1”, “activity. CDK6/Cychin D3” for “activity. CDK1/Cyclin B1”, “from Carna.” for “from Carna (Cat 04-102).”, “a 90-minute” for “a 90 minute”

[3] = target: CDK4/Cyclin D1 (Homo sapiens (Human), UniProt P11802); assay: CDK4/Cyclin D1 CHEF Assay; settings: AQT; read-out: CDK4/CyclinD1 AQT IC50
CDK4/Cyclin D1, sequence (P11802 whole entry, species assumed): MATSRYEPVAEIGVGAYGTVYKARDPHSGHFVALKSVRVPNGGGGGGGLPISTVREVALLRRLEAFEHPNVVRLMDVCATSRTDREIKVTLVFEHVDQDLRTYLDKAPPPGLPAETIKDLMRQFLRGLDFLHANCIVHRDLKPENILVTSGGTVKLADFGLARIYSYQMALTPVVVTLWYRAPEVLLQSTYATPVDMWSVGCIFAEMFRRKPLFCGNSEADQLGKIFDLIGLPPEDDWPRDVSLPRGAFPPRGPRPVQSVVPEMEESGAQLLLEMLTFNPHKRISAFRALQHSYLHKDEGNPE
CDK4/Cyclin D1, sequence (P24385 whole entry partner, species assumed): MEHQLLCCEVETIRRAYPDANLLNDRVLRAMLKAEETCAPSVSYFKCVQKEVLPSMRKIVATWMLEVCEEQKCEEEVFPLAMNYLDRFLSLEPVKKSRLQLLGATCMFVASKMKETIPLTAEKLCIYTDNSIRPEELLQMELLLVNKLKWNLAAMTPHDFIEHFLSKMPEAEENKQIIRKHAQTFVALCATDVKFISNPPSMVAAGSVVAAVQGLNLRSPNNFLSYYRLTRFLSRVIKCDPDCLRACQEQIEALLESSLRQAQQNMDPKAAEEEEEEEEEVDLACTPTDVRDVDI
Excerpt: CDK4/Cyclin D1 CHEF Assay
The purpose of CDK4/Cyclin Dl assay is to evaluate the inhibition (% inhibition and IC50 values) of small molecule inhibitors by using a Chelation-Enhance Fluorescence (CHEF) assay. In a CHEF assay, phosphorylation of a peptide substrate results in proportional increase in fluorescence. CHEF kinase assay use peptide substrates containing a synthetic alpha-amino acid with a side chain bearing an 8-hydroxyquinoline derivative (sulfonamido-oxide, Sox). Upon phosphorylation of a nearby serine, threonine or tyrosine and in the presence of Mg(II), the spectral properties of the Sox residue are altered, emitting 485 nm wavelength light when excited with a 360 nm wavelength light source. CDK4/Cyclin D1 catalyzes the phosphoryl transfer to the SOX-labeled substrate peptide AQT0258 from Assayquant Technologies. […] The reaction was initiated with the addition of substrate solution, following a 30-minute pre-incubation of enzyme and inhibitor at 22° C. in the reaction mix. Reactions were allowed to proceed for 3 hrs at 22° C., followed by fluorescence read of the reaction. The IC50 determinations were made from a plot of the fractional velocity as a function of inhibitor concentration fit to the 4 parameters IC50 equation.

CDK1/Cyclin B1, sequence (P06493 whole entry): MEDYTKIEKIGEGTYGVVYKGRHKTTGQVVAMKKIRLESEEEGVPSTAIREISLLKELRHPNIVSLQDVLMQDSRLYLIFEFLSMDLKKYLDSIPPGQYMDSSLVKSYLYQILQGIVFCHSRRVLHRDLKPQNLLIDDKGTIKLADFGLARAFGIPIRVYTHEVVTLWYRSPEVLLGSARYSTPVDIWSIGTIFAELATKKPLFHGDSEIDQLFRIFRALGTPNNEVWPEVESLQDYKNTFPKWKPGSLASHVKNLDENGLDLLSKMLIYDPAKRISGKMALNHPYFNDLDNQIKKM
CDK1/Cyclin B1, sequence (P14635 whole entry partner): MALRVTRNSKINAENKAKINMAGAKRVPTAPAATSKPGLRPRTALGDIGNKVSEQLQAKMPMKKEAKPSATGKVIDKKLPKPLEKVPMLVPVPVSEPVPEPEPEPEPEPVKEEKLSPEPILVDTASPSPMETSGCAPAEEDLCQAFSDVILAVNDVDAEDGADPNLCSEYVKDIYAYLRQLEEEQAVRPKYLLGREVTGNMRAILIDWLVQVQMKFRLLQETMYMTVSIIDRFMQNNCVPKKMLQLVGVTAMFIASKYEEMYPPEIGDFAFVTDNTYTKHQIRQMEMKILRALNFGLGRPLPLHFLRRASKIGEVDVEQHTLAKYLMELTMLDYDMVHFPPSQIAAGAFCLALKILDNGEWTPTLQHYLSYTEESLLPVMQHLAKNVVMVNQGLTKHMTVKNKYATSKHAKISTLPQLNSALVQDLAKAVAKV

[2H]C([2H])([2H])N1CC2(CN(c3nc(C)cc4cnc(NC5CCN(S(=O)(=O)C6CC6)CC5)nc34)CC2(F)F)C1 [Compound 13, N-(1-(cyclopropylsulfonyl)piperidin-4-yl)-8-(8,8-difluoro-2-(methyl-d3)-2,6-diazaspiro[3.4]octan-6-yl)-6-methylpyrido[3,4-d]pyrimidin-2-amine]
IC50 [1]: < 200 nM

CN1C[C@@H]2[C@H](C1)[C@H]2Nc1ncc2ccnc(N3CCC4(CCN(S(C)(=O)=O)C4)C3)c2n1 (stereo partly drawn) [Compound 15, N-((1R,5S,6s)-3-methyl-3-azabicyclo[3.1.0]hexan-6-yl)-8-(7-(methylsulfonyl)-2,7-diazaspiro[4.4]nonan-2-yl) pyrido[3,4-d]pyrimidin-2-amine]
IC50 [2]: > 2000 nM | IC50 [1]: > 2000 nM

CS(=O)(=O)N1CCC(Nc2ncc3ccnc(N4CC5(CCCC5)c5c(F)cccc54)c3n2)CC1 [Compound 19, 8-(4′-fluorospiro [cyclopentane-1,3′-indolin]-1′-yl)-N-(1-(methylsulfonyl)piperidin-4-yl)pyrido[3,4-d]pyrimidin-2-amine]
IC50 [2]: > 2000 nM | IC50 [1]: > 2000 nM

CN1Cc2ccc(Nc3ncc4ccnc(N5CCC6(CCN(S(C)(=O)=O)C6)C5)c4n3)cc2C1 (centres unmarked) [Compound 23, N-(2-methylisoindolin-5-yl)-8-(7-(methylsulfonyl)-2,7-diazaspiro[4.4]nonan-2-yl) pyrido[3,4-d]pyrimidin-2-amine]
IC50 [2]: < 200 nM | IC50 [3]: < 200 nM

CN1Cc2ccc(Nc3ncc4ccnc(N5CC6(C5)CS(=O)(=O)C6)c4n3)cc2C1 [Compound 24, 6-(2-((2-methylisoindolin-5-yl)amino)pyrido [3,4-d]pyrimidin-8-yl)-2-thia-6-azaspiro[3.3] heptane2,2-dioxide]
IC50 [2]: < 200 nM | IC50 [3]: < 200 nM

Cc1cc2cnc(Nc3ccc(N4CC5(CN(C)C5)C4)cc3)nc2c(N2CCC(C#N)(C3CC3)C2)n1 (centres unmarked) [Compound 28, 3-cyclopropyl-1-(6-methyl-2-((4-(6-methyl-2,6-diazaspiro[3.3]heptan-2-yl)phenyl)amino)pyrido[3,4-d]pyrimidin-8-yl)pyrrolidine-3-carbonitrile]
IC50 [2]: < 200 nM | IC50 [3]: < 200 nM

Cc1cc2cnc(Nc3cnn(C4CN(CC#N)C4)c3)nc2c(N2CC3(CN(C)C3)C2)n1 [Compound 31, 2-(3-(4-((6-methyl-8-(6-methyl-2,6-diazaspiro[3.3]heptan-2-yl)pyrido[3,4-d]pyrimidin-2-yl)amino)-1H-pyrazol-1-yl)azetidin-1-yl)acetonitrile]
IC50 [1]: > 2000 nM

Cc1cc2cnc(NC3CCN(S(=O)(=O)C4CC4)CC3)nc2c(N2CC3(CNC3)C2)n1 [Compound 32, N-(1-(cyclopropylsulfonyl)piperidin-4-yl)-6-methyl-8-(2,6-diazaspiro[3.3]heptan-2-yl) pyrido[3,4-d]pyrimidin-2-amine]
IC50 [2]: < 200 nM | IC50 [3]: < 200 nM

Cc1cc2cnc(Nc3ccc(N4CC5(CN(C)C5)C4)cc3)nc2c(N2CCC3(C2)CC3(F)F)n1 (centres unmarked) [Compound 34, 8-(1,1-difluoro-5-azaspiro[2.4]heptan-5-yl)-6-methyl-N-(4-(6-methyl-2,6-diazaspiro[3.3]heptan-2-yl)phenyl)pyrido [3,4-d]pyrimidin-2-amine]
IC50 [2]: < 200 nM | IC50 [3]: < 200 nM

Cc1cc2cnc(Nc3cnn(CC4(N(C)C)CC4)c3)nc2c(N2CCC(C#N)(C3CC3)C2)n1 (centres unmarked) [Compound 38, 3-cyclopropyl-1-(2-((1-((1-(dimethylamino)cyclopropyl)methyl)-1H-pyrazol-4-yl)amino)-6-methylpyrido[3,4-d]pyrimidin-8-yl)pyrrolidine-3-carbonitrile]
IC50 [2]: > 2000 nM | IC50 [1]: > 2000 nM

Cc1cc2cnc(NC3CCN(S(C)(=O)=O)CC3)nc2c(N2CCC3(C2)CC3(F)F)n1 (centres unmarked) [Compound 41, 8-(1,1-difluoro-5-azaspiro[2.4]heptan-5-yl)-6-methyl-N-(1-(methylsulfonyl)piperidin-4-yl)pyrido[3,4-d]pyrimidin-2-amine]
IC50 [1]: < 200 nM

Cc1cc2cnc(Nc3ccc4c(c3)CN(C3CC3)C4)nc2c(N2CC3(CCNC3)C2)n1 [Compound 47]
IC50 [2]: < 200 nM | IC50 [3]: < 200 nM

Cc1cc2cnc(NC3CCN(S(=O)(=O)C4CC4)CC3)nc2c(N2CC3(CCN(C)C3)C2)n1 [Compound 49, N-(1-(cyclopropylsulfonyl)piperidin-4-yl)-6-methyl-8-(6-methyl-2,6-diazaspiro[3.4]octan-2-yl)pyrido[3,4-d]pyrimidin-2-amine]
IC50 [2]: 200 to 500 nM | IC50 [3]: < 200 nM

FC(F)c1cc2cnc(Nc3ccc4c(c3)CN(C3CC3)C4)nc2c(N2CC3(CCNC3)C2)n1 [Compound 50, N-(2-cyclopropylisoindolin-5-yl)-6-(difluoromethyl)-8-(2,6-diazaspiro[3.4]octan-2-yl)pyrido[3,4-d]pyrimidin-2-amine]
IC50 [2]: < 200 nM | IC50 [3]: < 200 nM

Cc1cc2cnc(NC3CCN(S(=O)(=O)CC4CCCC4)CC3)nc2c(N2CC3(CCNC3)C2)n1 [Compound 51, N-(1-((cyclopentylmethyl)sulfonyl)piperidin-4-yl)-6-methyl-8-(2,6-diazaspiro[3.4]octan-2-yl)pyrido[3,4-d]pyrimidin-2-amine]
IC50 [2]: 200 to 500 nM | IC50 [3]: < 200 nM

COCCN1CC2(C1)CN(c1nc(C3CC3)cc3cnc(NC4CCN(S(=O)(=O)CC5CCC5)CC4)nc13)C2 [Compound 64, N-(1-((cyclobutylmethyl)sulfonyl)piperidin-4-yl)-6-cyclopropyl-8-(6-(2-methoxyethyl)-2,6-diazaspiro[3.3]heptan-2-yl)pyrido [3,4-d]pyrimidin-2-amine]
IC50 [2]: 200 to 500 nM | IC50 [3]: < 200 nM

Cc1cc2cnc(NC3CCN(S(C)(=O)=O)CC3)nc2c(C2CC(C)(CO)C2)n1 (centres unmarked) [Compound 69, (1-methyl-3-(6-methyl-2-((1-(methylsulfonyl)piperidin-4-yl)amino)pyrido[3,4-d]pyrimidin-8-yl)cyclobutyl) methanol]
IC50 [2]: < 200 nM | IC50 [3]: < 200 nM

CS(=O)(=O)N1CCC(Nc2ncc3cc(C4CC4)nc(C4CC5(CNCCO5)C4)c3n2)CC1 (centres unmarked) [Compound 70, 6-cyclopropyl-N-(1-(methylsulfonyl)piperidin-4-yl)-8-(5-oxa-8-azaspiro[3.5]nonan-2-yl)pyrido[3,4-d]pyrimidin-2-amine]
IC50 [1]: < 200 nM

Cc1cc2cnc(NC3CCN(S(C)(=O)=O)CC3)nc2c(C2CC3(CNCC3(F)F)C2)n1 (centres unmarked) [Compound 99, 8-(8,8-difluoro-6-azaspiro[3.4]octan-2-yl)-6-methyl-N-(1-(methylsulfonyl)piperidin-4-yl)pyrido[3,4-d]pyrimidin-2-amine]
IC50 [1]: < 200 nM

[2H]C([2H])([2H])N1CC2(CN(c3nc(C)cc4cnc(NC5CCN(S(=O)(=O)c6cnn(C)c6)CC5)nc34)CC2(F)F)C1 [Example 11, 8-(8,8-difluoro-2-(methyl-d3)-2,6-diazaspiro[3.4]octan-6-yl)-6-methyl-N-(1-((1-methyl-1H-pyrazol-4-yl)sulfonyl)piperidin-4-yl)pyrido[3,4-d]pyrimidin-2-amine]
IC50 [1]: < 200 nM

[2H]C([2H])([2H])N1CC2(CN(c3nc(C)cc4cnc(NC5CCN(S(C)(=O)=O)CC5)nc34)CC2(F)F)C1 [Example 12, 8-(8,8-difluoro-2-(methyl-d3)-2,6-diazaspiro[3.4]octan-6-yl)-6-methyl-N-(1-(methylsulfonyl)piperidin-4-yl)pyrido[3,4-d]pyrimidin-2-amine]
IC50 [1]: < 200 nM

Reference: patent US20250235456A1, “METHODS OF USE FOR AZA-QUINAZOLINE COMPOUNDS” (Iambic Therapeutics, Inc., priority 2024, published 2025)
